{"source": "patent US10478455B2", "about": "“Therapeutic use of tetrathiomolybdate” (UCL BUSINESS LTD, priority 2010, dated 2019)", "key": {"Soleus muscle fibres": {"test_system": "Soleus muscle fibres", "experiment": "Study 5: ex-vivo inhibition of oxygen consumption in permeabilized soleus muscle fibres (Clark electrode)", "conditions": "TTM 0.5-2 mM, saponin-permeabilized rat soleus muscle fibres", "method": "This study investivated ex-vivo Inhibition of oxygen consumption by TTM. Soleus muscle was removed from the hind limbs of male Wistar rats and preserved on ice in a physiological buffer solution. Muscle fibres were isolated with forceps and permeabilized with saponin. Muscle fibres were placed in a closed chamber containing a physiological solution and substrates for oxidative metabolism. Oxygen concentrations within the chamber were measured using a Clark electrode. The fall in oxygen concentration over time (gradient) reflects oxygen consumption by the tissue. Either vehicle or TTM (0.5-2 mM) was added to the chamber and oxygen consumption assessed. […] This further highlights the ability of TTM to decrease metabolism."}, "[1]": {"test_system": "rat model of haemorrhage/reperfusion injury", "experiment": "Study 6: rat model of haemorrhage/reperfusion injury", "type": "in vivo", "method": "This study investigated effects of TTM in a rat model of haemorrhage/reperfusion injury. Male Wistar rats were anaesthetized for insertion of carotid arterial and jugular venous lines for blood removal and fluid/drug administration, respectively. After 30 min stabilization, 50% estimated circulating blood volume was removed from the arterial line over 15 min. Animals were monitored for a further 90 min prior to resuscitation, then randomized to receive either TTM or placebo (normal saline). TTM (10 mg/kg) was administered as an i.v. bolus (2 ml/kg). This was immediately followed by administration of shed blood over 15 min. In TTM-treated animals, the shed blood was supplemented with a further 2.5 mg/kg TTM; total dose 12.5 mg/kg. Placebo treated animals received equivalent volumes of fluid and administration of shed blood. Following resuscitation, both groups of animals received 10 ml/kg/h n-saline and were monitored up to 6 h post-resuscitation. […] Thus, TTM administration improves outcome following severe haemorrhage/reperfusion injury. This beneficial effect is potentially mediated by modulation of metabolism."}, "endotoxaemic animals": {"test_system": "endotoxaemic animals", "experiment": "Study 3: core temperature during endotoxaemia (lipopolysaccharide, Klebsiella pneumoniae)", "type": "in vivo, rat", "method": "FIG. 3: Protocol for endotoxaemia experiments. ETX is endotoxin, TTM is tetrathiomolybdate. Fluids: a 50:50 mix of colloid and crystalloid plus glucose. TTM was diluted in normal saline and administered as a 4 ml/kg bolus. Animals received a venous line for drug administration under anaesthesia. Endotoxaemia (which typically causes an increase in core temperature) was induced by intravenous administration of lipopolysaccharide (20 mg/kg, Klebsiella pneumoniae). TTM or vehicle was administered 1 h following the onset of endotoxaemia (FIG. 3; protocol)."}, "Male Wistar rats [2]": {"test_system": "Male Wistar rats", "experiment": "Study 2: core temperature in anaesthetised rats", "type": "in vivo, rat", "conditions": "anaesthetised rats, 0.2, 2 and 20 mg/kg every 20 minutes; measured 20 minutes after the last dose, vs saline", "method": "Animals were anaesthetised and instrumented as above. Under continuous anaesthesia, TTM was administered every 20 minutes at increasing doses (0.2, 2 and 20 mg/kg). Core temperature was measured at the beginning of the experiment (i.e. before TTM administration) and 20 minutes after the last dose of the drug (20 mg/kg)."}, "Male Wistar rats [3]": {"test_system": "Male Wistar rats", "experiment": "Study 1: oxygen consumption and carbon dioxide production in awake rats in a metabolic cart", "type": "in vivo, rat", "method": "Male Wistar rats (300 g) were anaesthetised and instrumented with a venous line for drug administration. The animals were placed into a metabolic cart and allowed to recover from anaesthesia. After 2 h, TTM was administered i.v. hourly at increasing doses (2, 5, 10 and 20 mg/kg). Oxygen consumption and carbon dioxide production were continually monitored for the duration of the experiment. TTM induced a clear drop in oxygen consumption and carbon dioxide production at 10 and 20 mg/kg (FIG. 1), compared to time-matched control animals (sham) receiving only vehicle (saline)."}, "[4]": {"experiment": "Study 4: plasma sulphide after i.v. TTM (monobromobimane-based HPLC assay)", "type": "in vivo, rat", "method": "This study investigated sulphide release from tetrathiomolybdate (TTM). Male Wistar rats were anaesthetized allowing insertion of carotid arterial and jugular venous lines for blood sampling and drug administration, respectively. Plasma sulphide levels (measured using a monobromobimane-based HPLC assay) were determined up to 2 h following bolus i.v. administration of TTM (10 mg/kg) or for 3 h after the onset of two continuous i.v. infusions (10 and 20 mg/kg/h)."}, "Wilson's disease": {"test_system": "Wilson's disease", "conditions": "cited from earlier work"}, "[5]": {"conditions": "awake rats, TTM i.v. hourly at increasing doses, effect at 10 and 20 mg/kg vs sham (saline)"}}, "data": [{"compound": "[SH-].[SH-].[S]=[Mo]=[S]", "note": "[TTM, Tetrathiomolybdate]", "values": [{"measurement": "oxygen consumption ex vivo", "setting": "Soleus muscle fibres", "value": "dose-dependent inhibition of oxygen consumption"}, {"measurement": "6 h survival post-resuscitation", "setting": "[1]; TTM 10 mg/kg i.v. bolus plus 2.5 mg/kg in shed blood (total 12.5 mg/kg) vs placebo", "value": "significant improvement in 6 h survival"}, {"measurement": "core temperature", "setting": "[1]; TTM total dose 12.5 mg/kg, haemorrhage/reperfusion", "value": "Core temperature fell"}, {"measurement": "core temperature at highest dose", "setting": "endotoxaemic animals; TTM 20 mg/kg, 1 h after onset of endotoxaemia", "value": "induced significant hypothermia"}, {"measurement": "hyperthermic response to endotoxin (core temperature)", "setting": "endotoxaemic animals; TTM given 1 h after onset of endotoxaemia (LPS 20 mg/kg i.v.)", "value": "ablated the hyperthermic response to endotoxin"}, {"measurement": "core temperature", "setting": "Male Wistar rats [2]", "value": "decrease in core temperature"}, {"measurement": "conscious level", "setting": "Male Wistar rats [3]; awake rats during intravenous infusion of TTM", "value": "conscious level was maintained"}, {"measurement": "carbon dioxide production", "setting": "Male Wistar rats [3]; [5]", "value": "clear drop"}, {"measurement": "oxygen consumption", "setting": "Male Wistar rats [3]; [5]", "value": "clear drop"}, {"measurement": "plasma sulphide half-life", "setting": "[4]; bolus i.v. 10 mg/kg", "value": 17, "unit": "min"}, {"measurement": "plasma sulphide levels", "setting": "[4]; bolus i.v. 10 mg/kg, up to 2 h", "value": "high levels of sulphide in plasma"}, {"measurement": "time to steady state of plasma sulphide", "setting": "[4]; continuous i.v. infusion 10 and 20 mg/kg/h", "value": 2, "unit": "h"}, {"measurement": "plasma sulphide levels", "setting": "[4]; continuous i.v. infusion 10 and 20 mg/kg/h, 3 h", "value": "dose-dependent increase in plasma sulphide levels"}]}, {"compound": "ammonium TTM", "values": [{"measurement": "neurological function in patients who present with neurologic disease", "setting": "Wilson's disease", "value": "preserves neurological function"}]}]}
